Test results from article PMC8352984, “Estrogen mediates sex differences in preoptic neuropeptide and pituitary hormone production in medaka” (Communications Biology, 2021).

Columns and labels:
[1] = test system: follicle-stimulating hormone β subunit (fshb) gene expression; assay: Ex vivo pituitary organ culture, real-time PCR of fshb; assay type: cell-based, medaka (Oryzias latipes); conditions: for fshb expression (in words): female pituitaries, 10^-5 M, 24 h, 25 °C, vs vehicle;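 as to fshb expression (Fig. 8, fshb): relative expression with female control samples set to 1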
From the text: (§1) Fig. 8 Pacap and Vip have pleiotropic effects on the expression of anterior pituitary hormones. The effects of Pacap and Vip on gene expression levels of follicle-stimulating hormone β subunit (fshb), luteinizing hormone β subunit (lhb), thyroid-stimulating hormone β subunit (tshb), growth hormone (gh), somatolactin (sl), prolactin (prl), and pro-opiomelanocortin (pomc) were investigated by using male and female pituitaries cultured ex vivo (n = 6 per group, except male pituitary supplemented with Vip, where n = 5). Data were expressed as means with error bars representing standard error of the mean. Statistical differences were assessed by Dunnett’s post-hoc test. *p < 0.05; **p < 0.01; ***p < 0.001.
(§2) The pituitaries from five male or female fish were pooled for each sample and cultured ex vivo in Leibovitz’s L-15 medium supplemented with 5% charcoal-stripped fetal bovine serum as described elsewhere. The medium was further supplemented with 10^−5 M medaka Pacap or Vip, or vehicle alone. After 24 h of culture at 25 °C, the pituitaries were processed for total RNA extraction and cDNA synthesis by using the RNeasy Plus Micro Kit (Qiagen) and SuperScript VILO cDNA Synthesis Kit (Thermo Fisher Scientific), respectively. Real-time PCR was performed on the LightCycler 480 System II using LightCycler 480 SYBR Green I Master (Roche Diagnostics). The cycle conditions were: 95 °C for 5 min followed by 45 cycles of 95 °C for 10 sec, 60 °C for 10 sec and 72 °C for 10 sec. Melting curve analysis was performed as described above. Data were normalized to the geometric mean of three reference genes, actb, gapdh (encoding glyceraldehyde-3-phosphate dehydrogenase; National BioResource Project (NBRP) Medaka clone ID olbrno9_f15) and rpl13 (encoding ribosomal protein L13; NBRP Medaka clone ID olovano51_b24), according to Vandesompele et al.[63]. The primers used for real-time PCR are listed in Supplementary Table 3.

[2] = test system: thyroid-stimulating hormone β subunit (tshb) gene expression; assay: Ex vivo pituitary organ culture, real-time PCR of tshb; assay type: cell-based, medaka (Oryzias latipes); conditions: for tshb expression (in words): 10^-5 M, 24 h, 25 °C, vs vehicle
From the text: as §1, §2

[3] = test system: growth hormone (gh) gene expression; assay: Ex vivo pituitary organ culture, real-time PCR of gh; assay type: cell-based, medaka (Oryzias latipes); conditions: for gh expression (in words): 10^-5 M, 24 h, 25 °C, vs vehicle
From the text: as §1, §2

[4] = test system: somatolactin (sl) gene expression; assay: Ex vivo pituitary organ culture, real-time PCR of sl; assay type: cell-based, medaka (Oryzias latipes); conditions: for sl expression (in words): 10^-5 M, 24 h, 25 °C, vs vehicle
From the text: as §1, §2

[5] = test system: pro-opiomelanocortin (pomc) gene expression; assay: Ex vivo pituitary organ culture, real-time PCR of pomc; assay type: cell-based, medaka (Oryzias latipes); conditions: for pomc expression (in words): male pituitaries, 10^-5 M, 24 h, 25 °C, vs vehicle;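 as to pomc expression (Fig. 8, pomc): relative expression with female control samples set to 1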
From the text: as §1, §2

[6] = test system: Sl-producing cells, via Adcyap1r1; parameters: method as in PMID 18523122, PMID 19540424, PMID 23422837; conditions: grass carp and goldfish; cited from earlier work
[7] = test system: luteinizing hormone release via Adcyap1r1; parameters: method as in PMID 10949084; conditions: goldfish and rat; cited from earlier work
From the text: (§3) Contrary to pomc, fshb expression was female-biased and repressed by Pacap and Vip in a female-specific manner. […] Possibly, Pacap may have a similar mechanism of action in medaka. In medaka, however, the inhibitory effect on fshb is assumed to be primarily driven ...

[8] = test system: Fshb expression, gonadotrophs; conditions: dispersed rat pituitary cells; cited from earlier work
From the text: as §3

## Pituitary adenylate cyclase-activating polypeptide [Pacap]
[1]
  fshb expression (in words): significantly reduced
[1]; female, replicate 1
  fshb expression (Fig. 8, fshb): 0.383
[1]; female, replicate 2
  fshb expression (Fig. 8, fshb): 0.806
[1]; female, replicate 3
  fshb expression (Fig. 8, fshb): 0.807
[1]; female, replicate 4
  fshb expression (Fig. 8, fshb): 0.427
[1]; female, replicate 5
  fshb expression (Fig. 8, fshb): 0.650
[1]; female, replicate 6
  fshb expression (Fig. 8, fshb): 0.545
[1]; male, replicate 1
  fshb expression (Fig. 8, fshb): 0.173
[1]; male, replicate 2
  fshb expression (Fig. 8, fshb): 0.236
[1]; male, replicate 3
  fshb expression (Fig. 8, fshb): 0.293
[1]; male, replicate 4
  fshb expression (Fig. 8, fshb): 0.230
[1]; male, replicate 5
  fshb expression (Fig. 8, fshb): 0.290
[1]; male, replicate 6
  fshb expression (Fig. 8, fshb): 0.452
[2]; female pituitaries
  tshb expression (in words): no significant effects
[2]; female, replicate 1
  tshb expression (Fig. 8, tshb): 0.514
[2]; female, replicate 2
  tshb expression (Fig. 8, tshb): 0.485
[2]; female, replicate 3
  tshb expression (Fig. 8, tshb): 0.534
[2]; female, replicate 4
  tshb expression (Fig. 8, tshb): 0.502
[2]; female, replicate 5
  tshb expression (Fig. 8, tshb): 0.686
[2]; female, replicate 6
  tshb expression (Fig. 8, tshb): 0.387
[2]; male pituitaries
  tshb expression (in words): no significant effects
[2]; male, replicate 1
  tshb expression (Fig. 8, tshb): 0.207
[2]; male, replicate 2
  tshb expression (Fig. 8, tshb): 0.364
[2]; male, replicate 3
  tshb expression (Fig. 8, tshb): 1.165
[2]; male, replicate 4
  tshb expression (Fig. 8, tshb): 0.157
[2]; male, replicate 5
  tshb expression (Fig. 8, tshb): 2.250
[2]; male, replicate 6
  tshb expression (Fig. 8, tshb): 0.895
[3]; female pituitaries
  gh expression (in words): no significant effects
[3]; female, replicate 1
  gh expression (Fig. 8, gh): 0.960
[3]; female, replicate 2
  gh expression (Fig. 8, gh): 0.795
[3]; female, replicate 3
  gh expression (Fig. 8, gh): 0.779
[3]; female, replicate 4
  gh expression (Fig. 8, gh): 0.968
[3]; female, replicate 5
  gh expression (Fig. 8, gh): 0.957
[3]; female, replicate 6
  gh expression (Fig. 8, gh): 1.344
[3]; male pituitaries
  gh expression (in words): no significant effects
[3]; male, replicate 1
  gh expression (Fig. 8, gh): 0.248
[3]; male, replicate 2
  gh expression (Fig. 8, gh): 0.325
[3]; male, replicate 3
  gh expression (Fig. 8, gh): 0.488
[3]; male, replicate 4
  gh expression (Fig. 8, gh): 0.330
[3]; male, replicate 5
  gh expression (Fig. 8, gh): 0.376
[3]; male, replicate 6
  gh expression (Fig. 8, gh): 0.724
[4]; female pituitaries
  sl expression (in words): substantially increased
[4]; female, replicate 1
  sl expression (Fig. 8, sl): 5.138
[4]; female, replicate 2
  sl expression (Fig. 8, sl): 3.103
[4]; female, replicate 3
  sl expression (Fig. 8, sl): 4.426
[4]; female, replicate 4
  sl expression (Fig. 8, sl): 3.042
[4]; female, replicate 5
  sl expression (Fig. 8, sl): 2.318
[4]; female, replicate 6
  sl expression (Fig. 8, sl): 4.074
[4]; male pituitaries
  sl expression (in words): substantially increased
[4]; male, replicate 1
  sl expression (Fig. 8, sl): 1.710
[4]; male, replicate 2
  sl expression (Fig. 8, sl): 1.255
[4]; male, replicate 3
  sl expression (Fig. 8, sl): 1.415
[4]; male, replicate 4
  sl expression (Fig. 8, sl): 1.513
[4]; male, replicate 5
  sl expression (Fig. 8, sl): 0.886
[4]; male, replicate 6
  sl expression (Fig. 8, sl): 2.724
[5]; female, replicate 1
  pomc expression (Fig. 8, pomc): 1.650
[5]; female, replicate 2
  pomc expression (Fig. 8, pomc): 0.962
[5]; female, replicate 3
  pomc expression (Fig. 8, pomc): 1.174
[5]; female, replicate 4
  pomc expression (Fig. 8, pomc): 1.174
[5]; female, replicate 5
  pomc expression (Fig. 8, pomc): 1.328
[5]; female, replicate 6
  pomc expression (Fig. 8, pomc): 1.116
[5]
  pomc expression (in words): reduced
[5]; male, replicate 1
  pomc expression (Fig. 8, pomc): 5.882
[5]; male, replicate 2
  pomc expression (Fig. 8, pomc): 3.434
[5]; male, replicate 3
  pomc expression (Fig. 8, pomc): 4.022
[5]; male, replicate 4
  pomc expression (Fig. 8, pomc): 3.555
[5]; male, replicate 5
  pomc expression (Fig. 8, pomc): 1.951
[5]; male, replicate 6
  pomc expression (Fig. 8, pomc): 4.484
[6]
  synthesis and release of Sl (in words): stimulate the synthesis and release of Sl via Adcyap1r1
[7]
  release of luteinizing hormone (in words): directly stimulates the release of luteinizing hormone via Adcyap1r1
[8]
  fshb expression (in words): acts directly on gonadotrophs to inhibit Fshb expression

## vasoactive intestinal peptide [Vip]
[1]
  fshb expression (in words): significantly reduced
[1]; female, replicate 1
  fshb expression (Fig. 8, fshb): 0.539
[1]; female, replicate 2
  fshb expression (Fig. 8, fshb): 0.835
[1]; female, replicate 3
  fshb expression (Fig. 8, fshb): 0.607
[1]; female, replicate 4
  fshb expression (Fig. 8, fshb): 0.498
[1]; female, replicate 5
  fshb expression (Fig. 8, fshb): 0.542
[1]; female, replicate 6
  fshb expression (Fig. 8, fshb): 0.944
[1]; male, replicate 1
  fshb expression (Fig. 8, fshb): 0.537
[1]; male, replicate 2
  fshb expression (Fig. 8, fshb): 0.688
[1]; male, replicate 3
  fshb expression (Fig. 8, fshb): 0.453
[1]; male, replicate 5
  fshb expression (Fig. 8, fshb): 0.338
[1]; male, replicate 6
  fshb expression (Fig. 8, fshb): 0.319
[2]; female pituitaries
  tshb expression (in words): no significant effects
[2]; female, replicate 1
  tshb expression (Fig. 8, tshb): 1.106
[2]; female, replicate 2
  tshb expression (Fig. 8, tshb): 0.773
[2]; female, replicate 3
  tshb expression (Fig. 8, tshb): 0.549
[2]; female, replicate 4
  tshb expression (Fig. 8, tshb): 1.002
[2]; female, replicate 5
  tshb expression (Fig. 8, tshb): 0.461
[2]; female, replicate 6
  tshb expression (Fig. 8, tshb): 0.560
[2]; male pituitaries
  tshb expression (in words): no significant effects
[2]; male, replicate 1
  tshb expression (Fig. 8, tshb): 0.809
[2]; male, replicate 2
  tshb expression (Fig. 8, tshb): 1.442
[2]; male, replicate 3
  tshb expression (Fig. 8, tshb): 0.793
[2]; male, replicate 5
  tshb expression (Fig. 8, tshb): 0.484
[2]; male, replicate 6
  tshb expression (Fig. 8, tshb): 0.743
[3]; female pituitaries
  gh expression (in words): no significant effects
[3]; female, replicate 1
  gh expression (Fig. 8, gh): 0.831
[3]; female, replicate 2
  gh expression (Fig. 8, gh): 0.891
[3]; female, replicate 3
  gh expression (Fig. 8, gh): 0.819
[3]; female, replicate 4
  gh expression (Fig. 8, gh): 0.622
[3]; female, replicate 5
  gh expression (Fig. 8, gh): 0.476
[3]; female, replicate 6
  gh expression (Fig. 8, gh): 1.314
[3]; male pituitaries
  gh expression (in words): no significant effects
[3]; male, replicate 1
  gh expression (Fig. 8, gh): 0.673
[3]; male, replicate 2
  gh expression (Fig. 8, gh): 0.774
[3]; male, replicate 3
  gh expression (Fig. 8, gh): 0.572
[3]; male, replicate 5
  gh expression (Fig. 8, gh): 0.496
[3]; male, replicate 6
  gh expression (Fig. 8, gh): 0.481
[4]; female pituitaries
  sl expression (in words): substantially increased
[4]; female, replicate 1
  sl expression (Fig. 8, sl): 2.764
[4]; female, replicate 2
  sl expression (Fig. 8, sl): 2.848
[4]; female, replicate 3
  sl expression (Fig. 8, sl): 3.893
[4]; female, replicate 4
  sl expression (Fig. 8, sl): 3.276
[4]; female, replicate 5
  sl expression (Fig. 8, sl): 2.230
[4]; female, replicate 6
  sl expression (Fig. 8, sl): 4.010
[4]; male pituitaries
  sl expression (in words): substantially increased
[4]; male, replicate 1
  sl expression (Fig. 8, sl): 2.507
[4]; male, replicate 2
  sl expression (Fig. 8, sl): 2.455
[4]; male, replicate 3
  sl expression (Fig. 8, sl): 2.960
[4]; male, replicate 5
  sl expression (Fig. 8, sl): 2.682
[4]; male, replicate 6
  sl expression (Fig. 8, sl): 1.395
[5]; female, replicate 1
  pomc expression (Fig. 8, pomc): 1.053
[5]; female, replicate 2
  pomc expression (Fig. 8, pomc): 1.048
[5]; female, replicate 3
  pomc expression (Fig. 8, pomc): 0.787
[5]; female, replicate 4
  pomc expression (Fig. 8, pomc): 1.201
[5]; female, replicate 5
  pomc expression (Fig. 8, pomc): 1.189
[5]; female, replicate 6
  pomc expression (Fig. 8, pomc): 1.854
[5]
  pomc expression (in words): no significant effect
[5]; male, replicate 1
  pomc expression (Fig. 8, pomc): 3.570
[5]; male, replicate 2
  pomc expression (Fig. 8, pomc): 3.612
[5]; male, replicate 3
  pomc expression (Fig. 8, pomc): 5.174
[5]; male, replicate 5
  pomc expression (Fig. 8, pomc): 6.158
[5]; male, replicate 6
  pomc expression (Fig. 8, pomc): 3.870
